Results on ten compounds are retold here after US20160257697A1, “THIOPHENE-SUBSTITUTED TETRACYCLIC COMPOUNDS AND METHODS OFUSE THEREOF FOR THE TREATMENT OF VIRAL DISEASES” (priority 2013, published 2016).

Where two headings read alike, the source gives them in different places.

Assay in all cases: microbe, parasite or virus in culture
Common to all, as to type: cell-based, Hepatitis C virus (HCV)

One test deals with HCV replicon 1AY93H. The following applies: Replicon Assay A. The method, boiled down: (§1)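 Replicon cells were seeded at 2000 cells/well with test compound in 0.5% DMSO and 5% FBS, then harvested on day 3. Replicon RNA was measured by multiplex TaqMan real-time RT-PCR, using cyclophilin RNA as the endogenous control and quantified against standard curves of HCV replicon total RNA.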
Background: Replicon systems follow genome replication, usually without infectious particles.

The next test has as its system HCV replicon 2B. To be noted: Hepatitis C virus, read-out: 2B IC50 (nM), replicon 2B; Replicon Assay A. The procedure, abridged:
as §1

Another test concerns HCV replicon 1A. The following applies: Replicon Assay A. The procedure, abridged: as §1
Where [1] appears, read: Hepatitis C virus, read-out: 1A Y93H IC50 (nM), replicon 1AY93H.
The mark [2] stands for this setting: read-out: 1A Y93H IC50, replicon 1AY93H.
[3] abbreviates: read-out: 1A Y93H IC50, HCV replicon 1A Y93H.

What is called IC50 is the concentration at which inhibition is half-maximal. As to `COC(=O)N[C@H](C(=O)N1CCC[C@H]1c1ncc(-c2cc(F)c3c(c2)OC(c2ccc(C4(N)CC4)s2)n2c-3cc3cc(-c4cnc([C@@H]5CCCN5C(=O)[C@@H](NC(=O)OC)C(C)C)[nH]4)ccc32)[nH]1)C(C)C` (mixture of isomers) [Compound 57], the IC50 in the test with HCV replicon 1AY93H (setting [1]) is 0.37 nM; in the test on HCV replicon 2B it was 2.79 nM; with HCV replicon 1A (Hepatitis C virus, replicon 1A), 0.0114 nM.

For `COC(=O)N[C@H](C(=O)N1CCC[C@H]1c1ncc(-c2cc(F)c3c(c2)OC(c2cc(C)c(C(C)C)s2)n2c-3cc3cc(-c4cnc([C@@H]5CCCN5C(=O)[C@@H](NC(=O)OC)C(C)C)[nH]4)ccc32)[nH]1)C(C)C` (mixture of isomers) [Compound 64], the IC50 is 0.15 nM in the test on HCV replicon 1AY93H (setting [1]); 4.01 nM in the test on HCV replicon 2B; 0.004 nM in the test on HCV replicon 1A (Hepatitis C virus, replicon 1A).

For the compound `COC(=O)N[C@H](C(=O)N1CCC[C@H]1c1ncc(-c2cc(F)c3c(c2)OC(c2ccc(C4CC4)s2)n2c-3cc3cc(-c4cnc([C@@H]5C[C@@H](F)CN5C(=O)[C@@H](c5ccccc5)N5CCC5)[nH]4)ccc32)[nH]1)C(C)C` (mixture of isomers) [Compound 109], the IC50 came out at 4.5 nM with HCV replicon 1AY93H (setting [1]); 24.4 nM with HCV replicon 2B; 0.0058 nM with HCV replicon 1A (Hepatitis C virus, replicon 1A).

With `CC[C@@H]1CC(C(NC(=O)OC)C(=O)N2CCC[C@H]2c2ncc(-c3ccc4c(c3)cc3n4C(c4ccc(C5CC5)s4)Oc4cc(-c5cnc([C@@H]6CCCN6C(=O)[C@@H](NC(=O)OC)C(C)C)[nH]5)cc(F)c4-3)[nH]2)C[C@H](CC)O1` (single isomer, unassigned) [Compound 288], the IC50 in the test on HCV replicon 1AY93H (setting [2]) came to 16 nM; in the test on HCV replicon 1A (replicon 1A), 0.0046 nM.

Take `COC(=O)NC(C(=O)N1CCC[C@H]1c1ncc(-c2cc(F)c3c(c2)OC(c2ccc(C4CC4)s2)n2c-3cc3cc(-c4cnc([C@@H]5CCCN5C(=O)C(NC(=O)OC)C5C[C@@H](C)O[C@@H](C)C5)[nH]4)ccc32)[nH]1)C1C[C@@H](C)O[C@@H](C)C1` (single isomer, unassigned) [Compound 304]: the IC50 amounted to 16.8 nM in the test on HCV replicon 1AY93H (setting [2]) and 0.0455 nM in the test on HCV replicon 1A (replicon 1A).

For `COC(=O)N[C@H](C(=O)N1CCC[C@H]1c1ncc(-c2cc(F)c3c(c2)OC(c2csc(C4CC4)c2)n2c-3cc3cc(-c4cnc([C@@H]5CCCN5C(=O)[C@@H](NC(=O)OC)C(C)C)[nH]4)ccc32)[nH]1)C(C)C` (single isomer, unassigned) [Compound 321], the IC50 in the test with HCV replicon 1AY93H (setting [2]) came out at 5.79 nM; with HCV replicon 1A (Hepatitis C virus, replicon 1A), 0.0013 nM.

On to `COC(=O)N[C@H](C(=O)N1CCC[C@H]1c1ncc(-c2ccc3c(c2)OC(c2ccc(C4CC4)s2)n2c-3c(F)c3cc(-c4cnc([C@@H]5CCCN5C(=O)[C@@H](NC(=O)OC)C(C)C)[nH]4)ccc32)[nH]1)C(C)C` (single isomer, unassigned) [Compound 605], for which the values for the IC50 in the test on HCV replicon 1AY93H (setting [3]) and in the test with HCV replicon 1A (HCV replicon 1A) were 1.26 nM and 0.0017 nM, respectively.

`COC(=O)N[C@H](C(=O)N1CCC[C@H]1c1ncc(-c2cc(F)c3c(c2)OC(c2cc4ccccc4s2)n2c-3cc3cc(-c4cnc([C@@H]5C[C@H]6C[C@H]6N5C(=O)[C@@H](NC(=O)OC)C(C)C)[nH]4)ccc32)[nH]1)C(C)C` (single isomer, unassigned) [Compound 614]: the IC50 worked out at 2.21 nM in the test on HCV replicon 1AY93H (setting [3]) and 0.0015 nM in the test with HCV replicon 1A (Hepatitis C virus, HCV replicon 1A).

For the compound `COC(=O)NC(C(=O)N1[C@@H]2C[C@@H]2C[C@H]1c1ncc(-c2ccc3c(c2)cc2n3C(c3cc4c(s3)CCC4)Oc3cc(-c4cnc([C@@H]5CCCN5C(=O)[C@@H](NC(=O)OC)C(C)C)[nH]4)cc(F)c3-2)[nH]1)C(C)C` (single isomer, unassigned) [Compound 660], the IC50 with HCV replicon 1AY93H (setting [3]) was found to be 1.04 nM; with HCV replicon 1A (HCV replicon 1A), 0.00338 nM.

On to `COC(=O)N[C@H](C(=O)N1CCC[C@H]1c1ncc(-c2cc(F)c3c(c2)OC(c2ccc(CC(C)(C)OC)s2)n2c-3cc3cc(-c4cnc([C@@H]5CCCN5C(=O)[C@@H](NC(=O)OC)C(C)C)[nH]4)ccc32)[nH]1)C(C)C` (single isomer, unassigned) [Compound 843], for which the IC50 in the test on HCV replicon 1AY93H (HCV replicon 1A Y93H, read-out: 1A Y93H IC50) came out at 0.329 nM; with HCV replicon 1A (HCV replicon 1A), 0.0022 nM.
